Assay results as given in ChEMBL document CHEMBL1201862, “PubChem BioAssay data set” (2004).
“And” between values parts separate entries of the source, which are not always exact repeats. Equal entries are not always repeated.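 How tested: cells in 96-well plates exposed to compound for 48 hours at five concentrations. Here, GI50 denotes the concentration required for 50% inhibition of growth.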 The source made the active and inactive calls. No stated cut-off is given here; in the data, active = GI50 up to about 1.1 µM and inactive = higher.

Columns and labels:
Test in all cases: growth of human tumour cells (NCI), 48 h
[1] = test system: A549
[2] = test system: CAKI-1
[3] = test system: COLO 205
[4] = test system: HCT-116
[5] = test system: HCT-15
[6] = test system: HT-29
[7] = test system: KM12
[8] = test system: LOX IMVI
[9] = test system: M14
[10] = test system: OVCAR-4
[11] = test system: OVCAR-8
[12] = test system: SN12C
[13] = test system: SNB-19
[14] = test system: SR
[15] = test system: SW-620
[16] = test system: U-251
[17] = test system: UACC-257
[18] = test system: UACC-62

Row | SMILES | GI50 [1] | GI50 [2] | GI50 [3] | GI50 [4] | GI50 [5] | GI50 [6] | GI50 [7] | GI50 [8] | GI50 [9] | GI50 [10] | GI50 [11] | GI50 [12] | GI50 [13] | GI50 [14] | GI50 [15] | GI50 [16] | GI50 [17] | GI50 [18]
1 | O=C(O)C1Cc2[nH]cnc2CN1 (stereo not given) | > 100 µM (inactive) | > 100 µM (inactive) | > 100 µM (inactive) | > 100 µM (inactive) | > 100 µM | > 100 µM (inactive) | > 100 µM (inactive) | > 100 µM (inactive) | > 100 µM (inactive) | > 100 µM (inactive) | > 100 µM (inactive) | > 100 µM (inactive) | > 100 µM (inactive) | > 100 µM (inactive) | > 100 µM (inactive) | > 100 µM (inactive) | > 100 µM (inactive) | > 100 µM (inactive)
2 | CCOC(=O)/C(=C/c1ccc(C(F)(F)F)cc1)N(CC)CC | 38.8 µM (inactive) | 58.6 µM (inactive) | > 100 µM (inactive) | 40 µM (inactive) | 40.6 µM | > 100 µM (inactive) | 44.4 µM (inactive) | > 100 µM (inactive) | > 100 µM (inactive) | 78.9 µM (inactive) | 56 µM (inactive) | 53.3 µM (inactive) | – | > 100 µM (inactive) | 84.1 µM (inactive) | 41 µM (inactive) | 66.8 µM (inactive) | 35.4 µM (inactive)
3 | COC(=O)c1c[nH]cc1CCCCc1c[nH]cc1C(=O)OC | > 100 µM (inactive) | > 100 µM (inactive) | > 100 µM (inactive) | > 100 µM (inactive) | – | > 100 µM (inactive) | > 100 µM (inactive) | > 100 µM (inactive) | – | > 100 µM (inactive) | > 100 µM (inactive) | > 100 µM (inactive) | > 100 µM (inactive) | > 100 µM (inactive) | > 100 µM (inactive) | > 100 µM (inactive) | > 100 µM (inactive) | –
4 | C=CCc1cc(OC)c2c(c1)C(O)CC(c1ccccc1)O2 (stereo not given) | > 100 µM (inactive) | 62.7 µM (inactive) | > 100 µM (inactive) | > 100 µM (inactive) | 96.6 µM | 60.1 µM (inactive) | > 100 µM (inactive) | – | > 100 µM (inactive) | > 100 µM (inactive) | > 100 µM (inactive) | > 100 µM (inactive) | > 100 µM (inactive) | > 100 µM (inactive) | > 100 µM (inactive) | > 100 µM (inactive) | > 100 µM (inactive) | > 100 µM (inactive)
5 | CC12c3ccccc3C(OC=O)(c3ccccc31)C1(C)c3ccccc3C2(OC=O)c2ccccc21 | > 100 µM (inactive) | > 100 µM (inactive) | > 100 µM (inactive) | > 100 µM (inactive) | > 100 µM | > 100 µM (inactive) | > 100 µM (inactive) | > 100 µM (inactive) | > 100 µM (inactive) | > 100 µM (inactive) | > 100 µM (inactive) | > 100 µM (inactive) | > 100 µM (inactive) | 18.4 µM (inactive) | > 100 µM (inactive) | 95.5 µM (inactive) | > 100 µM (inactive) | > 100 µM (inactive)
6 | CCC(C)NC1=C(NC(C)=O)C(=O)c2ccccc2C1=O (stereo not given) | > 75 µM (inactive) | > 75 µM (inactive) | > 75 µM (inactive) | > 75 µM (inactive) | 46.1 µM | 54.1 µM (inactive) | > 75 µM (inactive) | 15.6 µM (inactive) | > 75 µM (inactive) | > 75 µM (inactive) | > 75 µM (inactive) | > 75 µM (inactive) | > 75 µM (inactive) | – | 22.5 µM (inactive) | > 75 µM (inactive) | > 75 µM (inactive) | > 75 µM (inactive)
7 | CCOC(=O)C(Cc1ccc([N+](=O)[O-])cc1)NC(=O)CC1c2ccccc2-c2ccccc21 (stereo not given) | 81.8 µM (inactive) | – | > 100 µM (inactive) | > 100 µM (inactive) | > 100 µM | > 100 µM (inactive) | > 100 µM (inactive) | > 100 µM (inactive) | 22.9 µM (inactive) | 55 µM (inactive) | 63.8 µM (inactive) | 67.8 µM (inactive) | 39.3 µM (inactive) | > 100 µM (inactive) | > 100 µM (inactive) | 43.9 µM (inactive) | 24.5 µM (inactive) | > 100 µM (inactive)
8 | COc1ccc(N2C(=O)C3c4[nH]c5ccccc5c4C4CCCCCCC4C3C2=O)cc1 (stereo not given) | 6.76 µM (inactive) | 17 µM (inactive) | 13.2 µM (inactive) | 3.85 µM (inactive) | 6.71 µM | 23 µM (inactive) | > 51.2 µM (inactive) | 5 µM (inactive) | 11.9 µM (inactive) | 15.9 µM (inactive) | 3.8 µM (inactive) | 4.79 µM (inactive) | 10.2 µM (inactive) | 6.52 µM (inactive) | 7.14 µM (inactive) | 4.06 µM (inactive) | 38.9 µM (inactive) | 15.9 µM (inactive)
9 | CCOC(=O)CCC1(C(=O)OC)CCCC1=O (stereo not given) | > 100 µM (inactive) | – | > 100 µM (inactive) | > 100 µM (inactive) | – | > 100 µM (inactive) | > 100 µM (inactive) | > 100 µM (inactive) | – | – | > 100 µM (inactive) | – | > 100 µM (inactive) | – | > 100 µM (inactive) | > 100 µM (inactive) | > 100 µM (inactive) | –
10 | C/C(=N\OCC(O)CNC(C)C)c1ccc2c(c1)NC(=O)CS2 (stereo not given) | > 100 µM (inactive) | – | > 100 µM (inactive) | > 100 µM (inactive) | > 100 µM | > 100 µM (inactive) | > 100 µM (inactive) | > 100 µM (inactive) | > 100 µM (inactive) | > 100 µM (inactive) | > 100 µM (inactive) | > 100 µM (inactive) | > 100 µM (inactive) | – | > 100 µM (inactive) | > 100 µM (inactive) | > 100 µM (inactive) | > 100 µM (inactive)
11 | CC(C)(O)[C@@H]1CC[C@@]2(C)CCC[C@H](O)[C@H]2C1 | > 100 µM (inactive) | > 100 µM (inactive) | > 100 µM (inactive) | > 100 µM (inactive) | > 100 µM | > 100 µM (inactive) | > 100 µM (inactive) | > 100 µM (inactive) | > 100 µM (inactive) | > 100 µM (inactive) | > 100 µM (inactive) | > 100 µM (inactive) | > 100 µM (inactive) | > 100 µM (inactive) | > 100 µM (inactive) | > 100 µM (inactive) | > 100 µM (inactive) | > 100 µM (inactive)
12 | CC1CN(c2ccc(Cl)cc2)CC(C)(C)OC(=O)O1 (stereo not given) | > 100 µM (inactive) | > 100 µM (inactive) | > 100 µM (inactive) | > 100 µM (inactive) | > 100 µM | > 100 µM (inactive) | > 100 µM (inactive) | > 100 µM (inactive) | > 100 µM (inactive) | > 100 µM (inactive) | > 100 µM (inactive) | > 100 µM (inactive) | > 100 µM (inactive) | > 100 µM (inactive) | > 100 µM (inactive) | > 100 µM (inactive) | > 100 µM (inactive) | > 100 µM (inactive)
13 | COC(=O)C1CC/C(=N\c2cccc(C(F)(F)F)c2)N1 (stereo not given) | > 100 µM (inactive) | > 100 µM (inactive) | > 100 µM (inactive) | > 100 µM (inactive) | > 100 µM | > 100 µM (inactive) | > 100 µM (inactive) | > 100 µM (inactive) | > 100 µM (inactive) | > 100 µM (inactive) | > 100 µM (inactive) | > 100 µM (inactive) | > 100 µM (inactive) | – | > 100 µM (inactive) | > 100 µM (inactive) | > 100 µM (inactive) | > 100 µM (inactive)
14 | O=C(O)CCSC(=O)Nc1cccc(F)c1 | > 100 µM (inactive) | – | > 100 µM (inactive) | – | > 100 µM | > 100 µM (inactive) | > 100 µM (inactive) | > 100 µM (inactive) | 18.3 µM (inactive) | – | > 100 µM (inactive) | > 100 µM (inactive) | > 100 µM (inactive) | > 100 µM (inactive) | > 100 µM (inactive) | > 100 µM (inactive) | > 100 µM (inactive) | 0.228 µM (active)
15 | CC1=C2C(=O)O[C@@H](c3ccoc3)[C@]2(C)CCC1 [FRAXINELLONE] | > 100 µM (inactive) | > 100 µM (inactive) | > 100 µM (inactive) | > 100 µM (inactive) | > 100 µM | > 100 µM (inactive) | > 100 µM (inactive) | > 100 µM (inactive) | > 100 µM (inactive) | > 100 µM (inactive) | > 100 µM (inactive) | – | > 100 µM (inactive) | > 100 µM (inactive) | > 100 µM (inactive) | > 100 µM (inactive) | > 100 µM (inactive) | > 100 µM (inactive)
16 | O=C1c2ccccc2-c2c3c(cc4ccnc1c24)OCO3 [LIRIODENINE] | 3.48 µM (inactive) and 3.47 µM (inactive) | 3.63 µM (inactive) and 3.77 µM (inactive) | 4.79 µM (inactive) and 4.24 µM (inactive) | 3.29 µM (inactive) and 3.17 µM (inactive) | 4.9 µM and 4.42 µM | 4.95 µM (inactive) and 4.06 µM (inactive) | 6.44 µM (inactive) and 6.5 µM (inactive) | 3.77 µM (inactive) and 4.22 µM (inactive) | 7.53 µM (inactive) and 6.71 µM (inactive) | 5.07 µM (inactive) and 8.24 µM (inactive) | 4.04 µM (inactive) and 5.14 µM (inactive) | 4.98 µM (inactive) and 5.82 µM (inactive) | 5.68 µM (inactive) and 8 µM (inactive) | – | 4.92 µM (inactive) and 3.82 µM (inactive) | 6.32 µM (inactive) and 5.45 µM (inactive) | – | 4.57 µM (inactive) and 2.77 µM (inactive)
